Assay results published in patent publication US20230312564A1, “AROMATIC RING-LACTAM COMPOUND, PREPARATION METHOD THEREFOR AND USE THEREOF” (SHANGHAI RINGENE BIOPHARMA CO., LTD., priority 2020, published 2023).
Where two headings read alike, the source gives them in different places.

What was measured:
Colo-205 cells = assay: Colo-205 tumor cell proliferation, CCK-8, 72 hours; type: cell-based; conditions: for IC50: Homo sapiens, COLO 205, 72 hours, CCK-8, read-out: Colo-205 IC50; for cell proliferation inhibitory activity (in words): Colo-205
p-ERK in MiaPaca-2 = assay: p-ERK feedback upregulation in MiaPaca-2 tumor cells; type: cell-based; conditions: acting on MiaPaca-2
ERK1/2 kinase = target: T1, ERK1/2 kinase; assay: ERK1/2 kinase (Carna) inhibitory activity, Caliper mobility shift; type: biochemical; conditions: for IC50: read-out: ERK½ IC50
T1 construct: fused on or other part: Carna's ERK products carry a GST tag by vendor knowledge
Outline: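 Compounds tested from 10 μM top concentration, 3-fold dilutions to 10 points, in duplicate, in 1× kinase buffer; Caliper mobility-shift readout.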

[1] = tested on: Colo-205 transplanted tumor; assay: Growth inhibition of nude mice Colo-205 transplanted tumor; type: in vivo; conditions: 50 mg/kg, qdx21, po
Procedure: The tumor tissue in the vigorous growth phase was cut into about 1.5 mm^3 and inoculated subcutaneously in the right axilla of nude mice under sterile conditions. The diameter of subcutaneous transplanted tumors in nude mice was measured with a vernier caliper, and the mice were randomly divided into groups when the average tumor volume reached about 130 mm^3. The embodiment compounds (injection water containing 1% Tween 80 were configured to a desired concentration for later use) were orally administered daily at a given dose for three consecutive weeks, and the solvent control group was administered with the same amount of solvent. During the whole test, the diameter of transplanted tumor was measured twice a week, and the mice were weighed at the same time. The calculation formula of tumor volume (TV) is expressed as TV=1/2×a×b^2, wherein a and b represent length and width, respectively. The relative tumor volume (RTV) was calculated according to the measurement results, and the calculation formula is RTV=Vt/V0, wherein V0 is the tumor volume measured when administered in separate cages (i.e., d0), and Vt is the tumor volume at the time of each measurement.

[2] = Liver microsomal stability, comparisons in words across species; type: in vitro ADME; conditions: mouse, rat and human; compared with comparative compound 5
Procedure: (§1) The reaction was stopped with tinidazole-containing acetonitrile at 0 min, 5 min, 10 min and 30 min, respectively. After vortexing for 10 min and centrifuging at 15,000 rmp for 10 min, 50 μL of the supernatant was injected into a 96-well plate. The metabolic stability of the compound was calculated by determining the relative reduction of the drug, calculated as half-life T1/2.

[3] = Liver microsomal metabolic stability, human; type: in vitro ADME; conditions: liver microsomes, 0.5 mg/mL microsomes, 1 μM compound, NADPH, read-out: Liver microsomal stability T1/2
Procedure: as §1

[4] = In-vivo pharmacokinetic parameters in mice; parameters: species or system Balb-c mice
Outline: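 Male SD rats or Balb-c mice were dosed intravenously at 1 mg/kg or orally at 5 mg/kg. Jugular-vein plasma was sampled up to 24 h and analysed by LC-MS/MS. Non-compartmental analysis gave AUC, MRT, Cmax, Tmax, T1/2, Vd and oral bioavailability (F).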

CYP1A2 = target: T2, CYP1A2 (Homo sapiens, UniProt P05177); assay: Direct inhibition test (DI test) in human liver microsomes, CYP1A2
T2 sequence (P05177 1-516): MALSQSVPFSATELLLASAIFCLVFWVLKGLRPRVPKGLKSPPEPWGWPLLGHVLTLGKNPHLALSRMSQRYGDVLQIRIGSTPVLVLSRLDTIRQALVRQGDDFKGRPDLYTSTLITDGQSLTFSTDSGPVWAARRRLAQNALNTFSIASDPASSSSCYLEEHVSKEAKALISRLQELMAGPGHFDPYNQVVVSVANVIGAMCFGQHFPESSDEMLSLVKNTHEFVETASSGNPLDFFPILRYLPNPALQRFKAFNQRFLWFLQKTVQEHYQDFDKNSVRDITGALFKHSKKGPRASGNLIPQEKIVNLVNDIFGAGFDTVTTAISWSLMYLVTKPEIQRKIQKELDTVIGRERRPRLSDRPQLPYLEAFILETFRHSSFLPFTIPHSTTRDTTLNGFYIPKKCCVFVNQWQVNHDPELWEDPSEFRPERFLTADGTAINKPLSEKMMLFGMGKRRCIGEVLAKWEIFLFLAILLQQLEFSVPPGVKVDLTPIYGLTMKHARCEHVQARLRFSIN
Procedure: (§2) (2) Direct inhibition test (DI test): A system containing 100 μL of human liver microsomes (final concentration of 0.2 mg/mL) was subjected to a direct inhibition incubation, and the system contained NADPH (final concentration of 1 mM), 10 μM compound, positive inhibitor cocktail (10 μM ketoconazole, 10 μM quinidine, 100 μM sulfaphenazole, 10 μM α-naphthoflavone, 1,000 μM tranylcypromine), negative control (BPS of 0.1% DMSO), and mixed probe substrates (10 μM midazolam, 100 μM testosterone, 10 μM dextromethorphan, […], 100 μM phenacetin, 100 μM mephenytoin). After 20 minutes of incubation, the reaction was stopped. The relative activity of the enzyme was calculated by measuring the relative production of metabolites.

CYP2D6 = target: T3, CYP2D6 (Homo sapiens, UniProt P10635); assay: Direct inhibition test (DI test) in human liver microsomes, CYP2D6; type: in vitro ADME
T3 construct: A system containing 100 μL of human liver microsomes; from tissue; host or cells: human liver microsomes
Procedure: as §2

[5] = Liver microsomal metabolic stability, rat; type: in vitro ADME; conditions: liver microsomes, 0.5 mg/mL microsomes, 1 μM compound, NADPH, read-out: Liver microsomal stability T1/2
Procedure: as §1

[6] = Liver microsomal metabolic stability, mouse; type: in vitro ADME; conditions: liver microsomes, 0.5 mg/mL microsomes, 1 μM compound, NADPH, read-out: Liver microsomal stability T1/2
Procedure: as §1

[7] = Liver microsomal metabolic stability, dog; type: in vitro ADME; conditions: liver microsomes, 0.5 mg/mL microsomes, 1 μM compound, NADPH, read-out: Liver microsomal stability T1/2
Procedure: as §1

CYP2C8 = CYP2C8 (Homo sapiens, UniProt P11712); assay: Direct inhibition test (DI test) in human liver microsomes, CYP2C8; type: in vitro ADME
CYP2C19 = target: T4, CYP2C19 (Homo sapiens, UniProt P33261); assay: Direct inhibition test (DI test) in human liver microsomes, CYP2C19; type: in vitro ADME
T4 construct: A system containing 100 μL of human liver microsomes; from tissue; host or cells: human liver microsomes
Procedure: as §2

CYP3A4 = target: T5, CYP3A4 (Homo sapiens, UniProt P08684); assay: Direct inhibition test (DI test) in human liver microsomes, CYP3A4; type: in vitro ADME
T5 construct: A system containing 100 μL of human liver microsomes; from tissue; host or cells: human liver microsomes
Procedure: as §2

[8] = male, Balb-c, mouse, plasma, IV, 1 mg/kg
[9] = male, Balb-c, mouse, plasma, PO, 5 mg/kg

T5 sequence (P08684 whole entry): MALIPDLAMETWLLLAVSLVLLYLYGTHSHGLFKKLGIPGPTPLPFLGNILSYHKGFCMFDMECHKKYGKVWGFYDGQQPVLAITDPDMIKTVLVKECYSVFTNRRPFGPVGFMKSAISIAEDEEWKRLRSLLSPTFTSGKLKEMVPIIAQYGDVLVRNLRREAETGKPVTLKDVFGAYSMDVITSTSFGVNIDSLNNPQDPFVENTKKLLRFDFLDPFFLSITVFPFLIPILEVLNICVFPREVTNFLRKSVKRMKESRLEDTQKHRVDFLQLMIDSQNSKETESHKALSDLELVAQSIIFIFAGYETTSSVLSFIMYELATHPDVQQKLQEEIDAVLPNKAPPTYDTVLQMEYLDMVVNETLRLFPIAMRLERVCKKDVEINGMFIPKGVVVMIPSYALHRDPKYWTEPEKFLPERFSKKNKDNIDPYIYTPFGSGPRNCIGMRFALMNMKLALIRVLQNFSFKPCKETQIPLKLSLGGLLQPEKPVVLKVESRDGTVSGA
T3 sequence (P10635 whole entry): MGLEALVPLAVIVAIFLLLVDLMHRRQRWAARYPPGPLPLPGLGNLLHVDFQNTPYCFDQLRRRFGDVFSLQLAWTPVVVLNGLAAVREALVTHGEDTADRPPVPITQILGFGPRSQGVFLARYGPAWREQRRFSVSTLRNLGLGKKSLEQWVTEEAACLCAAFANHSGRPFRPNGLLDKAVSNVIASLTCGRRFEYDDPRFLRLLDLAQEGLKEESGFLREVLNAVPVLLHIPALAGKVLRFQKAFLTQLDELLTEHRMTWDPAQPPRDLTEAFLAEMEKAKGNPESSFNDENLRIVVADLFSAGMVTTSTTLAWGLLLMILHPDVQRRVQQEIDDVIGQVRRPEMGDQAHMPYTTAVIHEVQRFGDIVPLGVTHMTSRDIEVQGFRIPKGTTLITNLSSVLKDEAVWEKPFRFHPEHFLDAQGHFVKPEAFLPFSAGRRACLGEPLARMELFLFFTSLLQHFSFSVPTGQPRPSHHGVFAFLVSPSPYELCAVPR
T4 sequence (P33261 whole entry): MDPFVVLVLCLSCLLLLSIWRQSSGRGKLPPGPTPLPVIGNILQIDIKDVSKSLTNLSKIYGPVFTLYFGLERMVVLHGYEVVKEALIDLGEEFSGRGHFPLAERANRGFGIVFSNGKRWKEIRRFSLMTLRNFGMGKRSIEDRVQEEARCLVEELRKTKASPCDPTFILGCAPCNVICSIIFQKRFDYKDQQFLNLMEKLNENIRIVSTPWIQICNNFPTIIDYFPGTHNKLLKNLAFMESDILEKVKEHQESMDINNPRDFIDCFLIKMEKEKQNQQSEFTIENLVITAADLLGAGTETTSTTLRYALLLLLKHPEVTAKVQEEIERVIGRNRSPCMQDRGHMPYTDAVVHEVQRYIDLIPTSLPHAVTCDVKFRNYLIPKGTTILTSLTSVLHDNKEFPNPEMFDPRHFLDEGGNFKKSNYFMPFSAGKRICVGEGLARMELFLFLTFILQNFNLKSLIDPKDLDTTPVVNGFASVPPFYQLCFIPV
CYP2C8, sequence (P11712 whole entry): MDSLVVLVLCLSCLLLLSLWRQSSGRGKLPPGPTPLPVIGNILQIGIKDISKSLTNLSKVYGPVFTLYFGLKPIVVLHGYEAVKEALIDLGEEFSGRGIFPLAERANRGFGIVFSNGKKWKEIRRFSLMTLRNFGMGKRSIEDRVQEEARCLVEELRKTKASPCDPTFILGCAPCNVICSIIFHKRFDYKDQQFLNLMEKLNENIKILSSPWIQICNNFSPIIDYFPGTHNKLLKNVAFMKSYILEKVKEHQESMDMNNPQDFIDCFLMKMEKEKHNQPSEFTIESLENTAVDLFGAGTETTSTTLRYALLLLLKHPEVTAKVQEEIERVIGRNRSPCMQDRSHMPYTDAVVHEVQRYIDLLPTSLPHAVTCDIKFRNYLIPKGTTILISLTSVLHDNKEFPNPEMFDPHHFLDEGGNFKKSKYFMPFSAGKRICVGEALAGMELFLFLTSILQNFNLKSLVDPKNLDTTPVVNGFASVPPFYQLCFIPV

| Structure (SMILES) | IC50 (Colo-205 cells; numeric values) [µM] | cell proliferation inhibitory activity (in words) (Colo-205 cells) | IC50 (CYP1A2) [µM] | IC50 (CYP2D6) [µM] | IC50 at 20 min (CYP2C8) [µM] | IC50 (CYP2C19) [µM] | IC50 (ERK1/2 kinase; numeric values) [µM] | IC50 (CYP3A4) [µM] | other results |
| --- | --- | --- | --- | --- | --- | --- | --- | --- | --- |
| CC(C)Nc1cc(-c2c[nH]c(C(=O)N[C@H](CO)c3cccc(Cl)c3)c2)c(Cl)cn1 [BVD523, reference compound] | 0.28 |  |  |  |  |  |  |  | p-ERK upregulation (in words) (p-ERK in MiaPaca-2): will cause p-ERK feedback upregulation; IC50 (ERK1/2 kinase; class symbols): < 0.01 µM; T/C [1]: 48.5%; Initial weight (D0) ([1]; D0): 19.8 g; Terminal weight (D21) ([1]; D21): 19.0 g; Initial tumor volume ([1]; initial): 97 ± 14 mm^3; Terminal tumor volume ([1]; terminal): 471 ± 198 mm^3 |
| COc1cc(F)cc([C@@H](CO)NC(=O)[C@@H](C)N2Cc3ccc(-c4nc(NC5CCOCC5)ncc4Cl)nc3C2=O)c1 [Embodiment 18] | 0.0333 | strong cell proliferation inhibitory activity | > 10 | > 10 | > 10 | > 10 | 0.0008 | > 10 | stability in liver microsomes (in words) [2]: significantly improved; half-life at 1 μM [3]: 12 min; F ([4]; PO 5 mg/kg vs IV 1 mg/kg): 25%; AUC(0-inf) [4, 8]: 0.202 µM·h; AUC(0-t) [4, 8]: 0.198 µM·h; MRT inf [4, 8]: 30 min; clearance [4, 8]: 144 mL/min/kg; half-life [4, 8]: 72 min; Vd ([4]; male, Balb-c, mouse, plasma, IV, 1 mg/kg, read-out: Vss): 3.9 L/kg; AUC(0-inf) [4, 9]: 0.257 µM·h; AUC(0-t) [4, 9]: 0.253 µM·h; Cmax [4, 9]: 289 nM; Tmax [4, 9]: 24 min; half-life [4, 9]: 42 min; half-life at 1 μM [5]: 16 min; half-life at 1 μM [6]: 32 min; half-life at 1 μM [7]: 32 min; enzyme inhibitory activity (in words) (ERK1/2 kinase): extremely strong enzyme inhibitory activity |
| C[C@H](C(=O)N[C@H](CO)c1ccc(F)c(Cl)c1)N1Cc2ccc(-c3nc(NC4CCOCC4)ncc3F)c(F)c2C1=O [Embodiment 48] | 0.0192 | strong cell proliferation inhibitory activity | > 10 | > 10 | > 10 | > 10 | < 0.001 | > 10 |  |
| COc1cc(F)cc([C@@H](CO)NC(=O)[C@@H](C)N2Cc3ccc(-c4nc(NC5CCOC5)ncc4F)c(F)c3C2=O)c1 (some centres unmarked) [Embodiment 42] |  | strong cell proliferation inhibitory activity | > 10 | > 10 | > 10 | > 10 | < 0.001 | > 10 | IC50 (Colo-205 cells; class symbols): < 0.1 µM |
| [2H]C([2H])([2H])Oc1cc(F)cc([C@@H](CO)NC(=O)[C@@H](C)N2Cc3ccc(-c4nc(NC5CCOCC5)ncc4F)c(F)c3C2=O)c1 [Embodiment 49] | 0.0174 | strong cell proliferation inhibitory activity | > 10 | > 10 | > 10 | > 10 | < 0.001 | > 10 | enzyme inhibitory activity (in words) (ERK1/2 kinase): extremely strong enzyme inhibitory activity |
| COc1cc(F)cc([C@@H](CO)NC(=O)[C@@H](C)N2Cc3ccc(-c4nc(NC5CCC(F)(F)CC5)ncc4F)c(F)c3C2=O)c1 [Embodiment 44] | 0.0183 | strong cell proliferation inhibitory activity | > 10 | > 10 | > 10 | > 10 |  | > 10 | IC50 (ERK1/2 kinase; class symbols): < 0.01 µM |
| C[C@H](C(=O)N[C@H](CO)c1cccc(F)c1)N1Cc2ccc(-c3nc(NC4CCOCC4)ncc3F)c(F)c2C1=O [Embodiment 46] | 0.0162 |  | > 10 | > 10 | > 10 | > 10 | < 0.001 | > 10 |  |
